Test results as given in patent US20080241215A1, “LOCAL VASCULAR DELIVERY OF PROBUCOL ALONE OR IN COMBINATION WITH SIROLIMUS TO TREAT RESTENOSIS, VULNERABLE PLAQUE, AAA AND STROKE” (priority 2007, published 2008).

How the values were obtained:
[1] = system: coronary arteries (angioplasty site); assay: IVUS substudy of the MVP restenosis trial; format: in vivo, human; settings: for EEM area / Lumen area / Wall area: per segment, mean ± SD
Description: The present invention concerns the IVUS substudy from the MVP restenosis trial. MVP was a double-blind placebo-controlled randomized clinical trial with four study groups. The protocol was approved by the Montreal Heart Institute institutional review board. The MVP study design, inclusion and exclusion criteria have been previously described (N Engl J Med 1997; 365-372). Briefly, patients referred for elective coronary angioplasty were evaluated at least 30 days prior to their scheduled procedure. Eligible patients were asked to provide written informed consent. Patients were eligible if they were scheduled to undergo standard balloon angioplasty on at least one native coronary artery and had at least one de novo target lesion with luminal narrowing of fifty percent or more by caliper measurements.
Beginning thirty days prior to scheduled angioplasty, patients were randomly assigned to receive either probucol alone, multivitamins alone, the combination of probucol and multivitamins, or placebo. Probucol 500 mg or matched placebo was administered twice daily. The multivitamin complex, consisting of vitamin E 700 IU, vitamin C 500 mg and beta-carotene 30,000 IU, or matched placebo was also administered in one tablet twice daily. All patients received an extra dose of probucol 1000 mg and/or vitamin E 2000 IU and/or matched placebos twelve hours before angioplasty, according to randomization assignment. […] All patients received aspirin 325 mg daily started at least thirty days before procedure and continued for the study period. Balloon angioplasty was performed according to standard techniques. Intracoronary nitroglycerin (0.3 mg) was given for each target artery for both pre- and post-dilatation angiography and at follow-up. The sequence of contrast injections with the exact degree of angulation was recorded and used for every angiogram. Coronary arteriograms (pre-, post-procedure, and final follow-up) were analyzed together using the Coronary Measurement System (CMS), as previously reported. Patient follow-up included clinical evaluation, exercise treadmill testing, blood chemistry, pill count and drug level measurements, and dietary assessment and intervention. Patients were readmitted for follow-up coronary angiography at five to seven months. Patients in whom arteriography was performed for clinical reasons before the fifth month returned for repeat angiographic examination at five to seven months if no definite angiographic restenosis was present on at least one dilated site. During follow-up, patients with recurrence or exacerbation of anginal symptoms were treated with medical therapy or revascularization procedures (reangioplasty or Coronary Bypass Surgery) as clinically indicated. Patients with angiographic restenosis (lesion>50%. at follow-up) without clinical evidence of ischemia were not subjected to further interventional procedures.
IVUS examinations were performed using 30 MHZ, 3.5 French mechanical (1800 rpm) ultrasound catheters (Boston Scientific, Natick, Mass.) and a dedicated imaging console (Hewlett Packard, Andover, Mass.) (Curr Opin Cardiol 1994; 9:627-633). In six patients, both examinations were performed using 20 MHZ, 3.5 French 64-element IVUS catheters (Endosonics, Pleasanton, Calif.). IVUS studies were first performed after coronary angioplasty (after final balloon inflation) and then after follow-up angiography (before any subsequent intervention) and were always preceded by administration of intracoronary nitroglycerin (0.3 mg). IVUS imaging was monitored by an experienced cardiologist, but the angioplasty operator was blinded to ultrasound results to avoid altering standard balloon angioplasty practice. The IVUS catheter was advanced distal to the dilated site to an easily recognizable landmark, most often a side branch, which was noted and used for follow-up IVUS examination. One angiographic view was recorded on videotape before beginning pullback of the IVUS catheter. […]

[2] = system: patients undergoing coronary angioplasty; assay: MVP randomized clinical trial (angiographic and clinical endpoints); format: in vivo, human
Source text: In addition, the invention enables the skilled practitioner to use probucol in conjunction with other percutaneous coronary interventions such as stenting if it is deemed appropriate. The present invention concerns the IVUS substudy from the MVP restenosis trial. MVP was a double-blind placebo-controlled randomized clinical trial with four study groups. The protocol was approved by the Montreal Heart Institute institutional review board. The MVP study design, inclusion and exclusion criteria have been previously described (N Engl J Med 1997; 365-372). Briefly, patients referred for elective coronary angioplasty were evaluated at least 30 days prior to their scheduled procedure. Eligible patients were asked to provide written informed consent. Patients were eligible if they were scheduled to undergo standard balloon angioplasty on at least one native coronary artery and had at least one de novo target lesion with luminal narrowing of fifty percent or more by caliper measurements. Beginning thirty days prior to scheduled angioplasty, patients were randomly assigned to receive either probucol alone, multivitamins alone, the combination of probucol and multivitamins, or placebo. Probucol 500 mg or matched placebo was administered twice daily. The multivitamin complex, consisting of vitamin E 700 IU, vitamin C 500 mg and beta-carotene 30,000 IU, or matched placebo was also administered in one tablet twice daily. […] Balloon angioplasty was performed according to standard techniques. […] The sequence of contrast injections with the exact degree of angulation was recorded and used for every angiogram. Coronary arteriograms (pre-, post-procedure, and final follow-up) were analyzed together using the Coronary Measurement System (CMS), as previously reported. Patient follow-up included clinical evaluation, exercise treadmill testing, blood chemistry, pill count and drug level measurements, and dietary assessment and intervention. Patients were readmitted for follow-up coronary angiography at five to seven months. Patients in whom arteriography was performed for clinical reasons before the fifth month returned for repeat angiographic examination at five to seven months if no definite angiographic restenosis was present on at least one dilated site. During follow-up, patients with recurrence or exacerbation of anginal symptoms were treated with medical therapy or revascularization procedures (reangioplasty or Coronary Bypass Surgery) as clinically indicated. Patients with angiographic restenosis (lesion>50%. at follow-up) without clinical evidence of ischemia were not subjected to further interventional procedures.

LDL = LDL peroxidation lag phase ex vivo (diene conjugates after addition of copper ions); format: biochemical, human; settings: treatment for one month; compared with vitamins alone or the combination of probucol and vitamins; preliminary results
[3] = Follow-up Post PTCA (follow-up minus after angioplasty), listed as Probucol Alone
[4] = Follow-up Post PTCA, efficacy analysis in compliant patients
[5] = Follow-up, listed as Probucol Alone
[6] = probucol given alone, compared to placebo

## CC(C)(Sc1cc(C(C)(C)C)c(O)c(C(C)(C)C)c1)Sc1cc(C(C)(C)C)c(O)c(C(C)(C)C)c1 [probucol, 4,4′-([1-methylethylidene)bis(thio)]bis-[2,6-bis(1,1-dimethylethyl)phenol]]
[1]; After Angioplasty
  EEM area: 12.20 ± 4.66 mm^2
  Lumen area: 4.62 ± 1.59 mm^2
  Wall area: 7.57 ± 3.98 mm^2
[1]; Follow-up Post PTCA (follow-up minus after angioplasty)
  Lumen area, change: −0.15 ± 1.70 mm^2
[1]; [3]
  EEM area, change: 1.74 ± 1.80 mm^2
  Wall area, change: 1.89 ± 1.87 mm^2
[1]; Follow-up Post PTCA (follow-up minus after angioplasty), listed as probucol alone
  EEM area, change: 1.74 mm^2
[1]; [4]
  EEM area, change: 1.74 ± 1.80 mm^2
  Lumen area, change: −0.15 ± 1.70 mm^2
  Wall area, change: 1.89 ± 1.87 mm^2
[1]; [5]
  EEM area: 13.93 ± 4.74 mm^2
  Lumen area: 4.47 ± 1.93 mm^2
  Wall area: 9.46 ± 4.36 mm^2
[1]; in vivo
  patients with an increase in EEM area of at least 1 mm^2 at follow-up: 72.0%
[1]; probucol only compared with placebo
  increase in vessel enlargement: seven hundred-thirty
[2]; MVP study
  patients with restenosis: over twenty
[2]; probucol given alone, at 6 month, compared to placebo
  reduction in the need for repeat angioplasty: fifty-eight
[2]; [6]
  reduction in angiographic lumen loss: sixty-eight
  reduction in restenosis rate per segment: forty-seven
LDL
  protection against LDL oxidation (lag phase for LDL peroxidation): significantly greater protection against LDL oxidation
